Experimental data reported in patent US20090170872A1, “Compounds and Their Pharmaceutical Use” (Orchid Research Laboratories Limited, priority 2005, published 2009).

What was measured:
IL-6 = IL-6 production in LPS-stimulated human whole blood (ELISA); type: cell-based; conditions: LPS 4 hours, read-out: % IL-6 Inhibitory Activity (hPBMC)
Procedure: This assay determines the effect of test compounds on the production of IL-6 from human whole blood. Compounds are tested for their ability to downregulate the production of IL-6 in activated whole blood. The test compounds are pre-incubated for 15 minutes at 37° C. and then stimulated with Lipopolysaccharide (Salmonella abortus equi, 1 µg/ml) for 4 hours at 37° C. in 5% CO2. The levels of IL-6 are estimated using Enzyme linked Immunosorbent assay performed in a 96 well format as per the procedure of the manufacturer. (Cayman Chemical, Ann Arbor, USA).

TNF-α = TNF-α production in LPS-stimulated human whole blood (ELISA); type: cell-based; conditions: LPS 4 hours, read-out: % TNF-α Inhibitory Activity in (hPBMC)
Procedure: This assay determines the effect of the test compounds on the production of TNF-α in human whole blood. TNF-α assay is carried out as described by Armin Hatzelmann and Christian Schudt (J Pharm Exp Ther 297, 261, 2001). Compounds are tested for their ability to inhibit the activity of TNF-α in human whole blood. The test compounds are pre-incubated for 15 minutes at 37° C. and then stimulated with Lipopolysaccharide (Salmonella abortus equi, 1 µg/ml) for 4 hours at 37° C. in 5% CO2. The levels of TNF-α are estimated using Enzyme linked Immunosorbent assay performed in a 96 well format as per the procedure of the manufacturer (Cayman Chemical, Ann Arbor, USA).

COX-2 = target: T1, COX-2 (Homo sapiens, UniProt P35354); assay: COX-2 enzyme based assay (purified recombinant enzyme, prostaglandin EIA); type: biochemical
T1 sequence (P35354 18-604): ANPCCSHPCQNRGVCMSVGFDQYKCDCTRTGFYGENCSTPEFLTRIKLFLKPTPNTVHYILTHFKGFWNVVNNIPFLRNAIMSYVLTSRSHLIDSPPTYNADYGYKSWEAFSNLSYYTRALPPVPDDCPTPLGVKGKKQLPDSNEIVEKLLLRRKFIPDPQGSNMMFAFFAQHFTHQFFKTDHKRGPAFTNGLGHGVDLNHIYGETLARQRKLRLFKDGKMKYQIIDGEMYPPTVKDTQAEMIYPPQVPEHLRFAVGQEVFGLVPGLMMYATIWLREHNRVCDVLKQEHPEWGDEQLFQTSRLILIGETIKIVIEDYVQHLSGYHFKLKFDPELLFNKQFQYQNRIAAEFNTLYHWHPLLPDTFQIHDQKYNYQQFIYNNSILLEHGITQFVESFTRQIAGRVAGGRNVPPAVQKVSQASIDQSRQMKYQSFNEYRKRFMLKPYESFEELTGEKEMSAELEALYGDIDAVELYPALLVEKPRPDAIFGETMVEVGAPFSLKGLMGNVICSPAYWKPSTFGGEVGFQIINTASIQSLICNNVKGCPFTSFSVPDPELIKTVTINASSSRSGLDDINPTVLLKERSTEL
Procedure: (§1) COX-1 and COX-2 enzyme based assays were carried out to check the inhibitory potential of test compounds on the production of prostaglandin by purified recombinant COX-1/COX-2 enzyme (Proc. Nat. Acad. Sci. USA, 88, 2692-2696, 1991; J. Clin. Immunoassay 15, 116-120, 1992) In this assay, the potential of the test compound to inhibit the production of prostaglandin's either by COX-1 or COX-2 from arachidonic acid (substrate) was measured. This was an enzyme based in-vitro assay to evaluate selective COX inhibition with good reproducibility.
(§2) Arachidonic acid was converted to PGH2 (Intermediate product) by COX1/COX-2 in the presence or absence of the test compound. The reaction was carried out at 37° C. and after 2 minutes it was stopped by adding 1M HCl. The intermediate product PGH2 was converted to a stable prostanoid product PGF2α by SnCl2 reduction. The amount of PGF2α produced in the reaction was inversely proportional to the COX inhibitory potential of the test compound. The prostanoid product was quantified via enzyme immunoassay (EIA) using a broadly specific antibody that binds to all the major forms of prostaglandin, using Cayman ELISA kit as per the procedure outlined by the manufacturer (Cayman Chemicals, Ann Arbor, USA).

serum TNF-α production = assay: In-vivo TNF-α inhibition assay (LPS-induced serum TNF-α in mice); conditions: male Swiss albino mice, oral, serum 90 minutes after LPS challenge
Procedure: TNF-α inhibitory activity is assessed by in-vivo inhibition of serum TNF-α production in mice. This method is used to assess the inhibitory actions of compounds, on TNF-[…] production in mouse (Griswold et al J Pharmacol Exp Ther 287,705, 1998, Garcia et al, Histol Histopathol 5(1), 43, 1990, and Victor et al, Physiol Res 52,789, 2003). Male Swiss albino mice with body weights equivalent within each group are selected. The animals are fasted for eighteen hours with free access to water. The control group receives only LPS and the drug treatment group receives LPS and the test compound. At the start of the experiment, the drug is administered orally. Thirty minutes later, the animals are given intraperitoneal injection with lipo-polysaccharide (LPS). Blood samples are withdrawn 90 minutes after the LPS challenge, which is the time point of maximal elevation of serum TNF-α activity. Blood was centrifuged for 10 minutes at 4° C. Serum samples were assayed for TNF-[…] levels using Mouse ELISA kit. The Percent Inhibition of TNF-α production is determined by comparison with LPS-treated and LPS/drug treated groups.

COX-1 = COX-1 (Homo sapiens, UniProt P23219); assay: COX-1 enzyme based assay (purified recombinant enzyme, prostaglandin EIA); type: biochemical
Procedure: as §1, §2

COX-1, sequence (P23219 24-599): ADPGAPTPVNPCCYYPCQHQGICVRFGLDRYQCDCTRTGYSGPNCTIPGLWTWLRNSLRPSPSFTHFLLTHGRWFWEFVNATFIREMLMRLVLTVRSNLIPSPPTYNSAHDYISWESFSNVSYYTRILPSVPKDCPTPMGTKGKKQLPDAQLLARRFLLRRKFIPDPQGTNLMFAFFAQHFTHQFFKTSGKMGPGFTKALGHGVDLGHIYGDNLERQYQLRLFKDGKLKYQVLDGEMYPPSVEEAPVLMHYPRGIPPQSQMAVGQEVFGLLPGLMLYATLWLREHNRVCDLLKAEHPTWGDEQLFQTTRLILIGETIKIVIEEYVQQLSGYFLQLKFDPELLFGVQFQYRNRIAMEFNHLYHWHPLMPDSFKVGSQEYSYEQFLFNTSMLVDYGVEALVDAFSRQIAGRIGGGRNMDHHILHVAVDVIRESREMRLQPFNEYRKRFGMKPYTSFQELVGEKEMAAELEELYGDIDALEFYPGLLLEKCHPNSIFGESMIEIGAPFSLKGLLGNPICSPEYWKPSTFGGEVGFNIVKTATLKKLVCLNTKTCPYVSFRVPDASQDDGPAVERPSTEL

Structure (SMILES)	inhibition at 1 µM (IL-6)	inhibition at 10 µM (IL-6)	inhibition at 1 µM (TNF-α)	inhibition at 10 µM (TNF-α)	melting point	inhibition at 1 µM (COX-2)	inhibition at 10 µM (COX-2)	% TNF-α inhibition in in vivo sepsis in mice (serum TNF-α production)	inhibition at 10 µM (COX-1)
Cc1nccn1CC1CCc2c(c3ccccc3n2C)/C1=N/OCc1ccccc1 (stereo not shown) [Example 2, (4E)-9-methyl-3-[(2-methyl-1H-imidazol-1-yl)methyl]-1,2,3,9-tetrahydro-4H-carbazol-4-one O-benzyloxime]	17.2%	52.7%	6.87%	54.3%	–	–	–	–	–
CCO/N=C1/c2c(n(C)c3ccccc23)CCC1Cn1ccnc1C (stereo not shown) [Example 3, (4E)-9-methyl-3-[(2-methyl-1H-imidazol-1-yl)methyl]-1,2,3,9-tetrahydro-4H-carbazol-4-one O-ethyloxime]	13.1%	17.7%	3.42%	26.9%	–	–	–	–	–
CC(=O)O/N=C1/c2c(n(C)c3ccccc23)CCC1Cn1ccnc1C (stereo not shown) [Example 25, (4E)-9-methyl-3-[(2-methyl-1H-imidazol-1-yl)methyl]-1,2,3,9-tetrahydro-4H-carbazol-4-one O-acetyloxime]	22.4%	12.5%	–	–	–	–	–	–	–
Cc1nccn1CC1CCc2c(c3ccccc3n2C)/C1=N/OC(=O)c1ccc(F)cc1 (stereo not shown) [Example 38, (4E)-9-methyl-3-[(2-methyl-1H-imidazol-1-yl)methyl]-1,2,3,9-tetrahydro-4H-carbazol-4-one O-4-fluorobenzoyloxime]	19.1%	26%	–	–	192 to 200 °C	–	–	–	–
Cc1nccn1CC1CCc2c(c3ccccc3n2C)/C1=N/Oc1ccc(C(F)(F)F)cn1 (stereo not shown) [Example 21, (4E)-9-methyl-3-[(2-methyl-1H-imidazol-1-yl)methyl]-1,2,3,9-tetrahydro-4H-carbazol-4-one O-[5-trifluoromethyl-pyridin-2-yl]oxime]	–	–	–	–	–	23%	23.6%	–	–
Cc1nccn1CC1CCc2c(c3ccccc3n2C)/C1=N/OC(=O)c1ccccc1Cl (stereo not shown) [Example 37, (4E)-9-methyl-3-[(2-methyl-1H-imidazol-1-yl)methyl]-1,2,3,9-tetrahydro-4H-carbazol-4-one O-2-chlorobenzoyloxime]	21.1%	32.2%	14.5%	42.1%	111 to 116 °C	–	–	–	–
Cc1nccn1CC1CCc2c(c3ccccc3n2C)/C1=N/Oc1ccc(Br)cn1 (stereo not shown) [Example 17, (4E)-9-methyl-3-[(2-methyl-1H-imidazol-1-yl)methyl]-1,2,3,9-tetrahydro-4H-carbazol-4-one O-[5-bromo-pyridin-2-yl]oxime]	–	–	–	–	–	41.5%	42.7%	82.69%	–
Cc1nccn1CC1CCc2c(c3ccccc3n2C)/C1=N/OC(=O)c1cccc(C#N)c1 (stereo not shown) [Example 65, (4E)-9-methyl-3-[(2-methyl-1H-imidazol-1-yl)methyl]-1,2,3,9-tetrahydro-4H-carbazol-4-one O-3-cyanobenzoyloxime]	13.7%	30.6%	–	–	160 to 166 °C	–	–	–	–
Cc1nccn1CC1CCc2c(c3ccccc3n2C)/C1=N/OC(=O)c1ccccc1Br (stereo not shown) [Example 39, (4E)-9-methyl-3-[(2-methyl-1H-imidazol-1-yl)methyl]-1,2,3,9-tetrahydro-4H-carbazol-4-one O-2-bromobenzoyloxime]	28.5%	19.1%	26.1%	45.8%	108 to 112 °C	–	–	–	–
Cc1nccn1CC1CCc2c(c3ccccc3n2C)/C1=N/OC(=O)c1ccc(C#N)cc1 (stereo not shown) [Example 44, (4E)-9-methyl-3-[(2-methyl-1H-imidazol-1-yl)methyl]-1,2,3,9-tetrahydro-4H-carbazol-4-one O-4-cyanobenzoyloxime]	13.2%	22.7%	23.5%	45.6%	178 to 180 °C	–	–	–	–
Cc1nccn1CC1CCc2c(c3ccccc3n2C)/C1=N/OC(=O)C1CCCCC1 (stereo not shown) [Example 42, (4E)-9-methyl-3-[(2-methyl-1H-imidazol-1-yl)methyl]-1,2,3,9-tetrahydro-4H-carbazol-4-one O-cyclohexanoyloxime]	7.96%	18.5%	–	–	98 to 106 °C	–	–	–	–
Cc1nccn1CC1CCc2c(c3ccccc3n2C)/C1=N/OC(=O)c1ccc(Br)s1 (stereo not shown) [Example 62, (4E)-9-methyl-3-[(2-methyl-1H-imidazol-1-yl)methyl]-1,2,3,9-tetrahydro-4H-carbazol-4-one O-[(5-bromothien-2-yl)carbonyl]oxime]	–	–	–	–	–	42%	36.5%	86.10%	16.4%
COc1cc(O/N=C2/c3c(n(C)c4ccccc34)CCC2Cn2ccnc2C)nc(OC)n1 (stereo not shown) [Example 20, (4E)-9-methyl-3-[(2-methyl-1H-imidazol-1-yl)methyl]-1,2,3,9-tetrahydro-4H-carbazol-4-one O-(2,6-dimethoxypyrimidin-4-yl)oxime]	–	–	–	–	–	32.7%	34.9%	–	39.1%
Cc1nccn1CC1CCc2c(c3ccccc3n2C)/C1=N/OC(=O)c1ccc([N+](=O)[O-])o1 (stereo not shown) [Example 47, (4E)-9-methyl-3-[(2-methyl-1H-imidazol-1-yl)methyl]-1,2,3,9-tetrahydro-4H-carbazol-4-one O-5-nitro-2-furanoyloxime]	–	–	18%	26.5%	186 to 190 °C	–	–	–	–
CCc1ccc(C(=O)O/N=C2/c3c(n(C)c4ccccc34)CCC2Cn2ccnc2C)cc1 (stereo not shown) [Example 41, (4E)-9-methyl-3-[(2-methyl-1H-imidazol-1-yl)methyl]-1,2,3,9-tetrahydro-4H-carbazol-4-one O-4-ethylbenzoyloxime]	7.63%	3.09%	–	–	175 to 178 °C	–	–	–	–
Cc1nccn1CC1CCc2c(c3ccccc3n2C)/C1=N/OC(=O)c1cccc(Cl)n1 (stereo not shown) [Example 40, (4E)-9-methyl-3-[(2-methyl-1H-imidazol-1-yl)methyl]-1,2,3,9-tetrahydro-4H-carbazol-4-one O-6-chloropyridinoyloxime]	20.5%	21.3%	–	–	170 to 175 °C	–	–	–	–
